In article PMC9856672, “SGC-CAMKK2-1: A Chemical Probe for CAMKK2” (Cells, 2023):

Tests used:
[1] = molecular target: T1, RSK3(Kin.Dom.2-C-terminal) (Homo sapiens, UniProt Q15349); experiment: DiscoverX KINOMEscan binding assay at 1 μM, RSK3(Kin.Dom.2-C-terminal); settings: RSK3(Kin.Dom.2-C-terminal) (RPS6KA2); Compound Concentration 1000 nM; read-out: Percent Control
T1 construct: RSK3(Kin.Dom.2-C-terminal); purchased Eurofins DiscoverX KINOMEscan
Excerpt: (§1) Supplement cells-12-00287-s001.zip/File S2. KinomeScan data for the CAMKK2 probe and negative control.xlsx, sheet "SGC-CAMKK2-1" | column: Percent Control

ULK3 = molecular target: T2, ULK3 (Homo sapiens, UniProt Q6PHR2); experiment: DiscoverX KINOMEscan binding assay at 1 μM, ULK3; settings: Compound Concentration 1000 nM, read-out: Percent Control
T2 construct: purchased Eurofins DiscoverX KINOMEscan
Excerpt: as §1

EGFR(L747-T751del,Sins) = experiment: KINOMEscan 1 μM, EGFR(L747-T751del,Sins); type: binding, human; settings: 1000 nM; Entrez EGFR
Excerpt: as §1

DMPK2 = molecular target: T3, DMPK2 (Homo sapiens, UniProt Q6DT37); experiment: KINOMEscan 1 μM, DMPK2; type: binding; settings: 1000 nM; Entrez CDC42BPG; read-out: Percent Control
T3 construct: purchased Eurofins DiscoverX KINOMEscan
Excerpt: as §1

GRK7 = molecular target: T4, GRK7 (Homo sapiens, UniProt Q8WTQ7); experiment: KINOMEscan 1 μM, GRK7; type: binding; settings: 1000 nM; Entrez GRK7; read-out: Percent Control
T4 construct: purchased Eurofins DiscoverX KINOMEscan
Excerpt: as §1

PIK4CB = molecular target: T5, PIK4CB (Homo sapiens, UniProt Q9UBF8); experiment: DiscoverX KINOMEscan binding assay at 1 μM, PIK4CB; settings: PIK4CB (PI4KB); Compound Concentration 1000 nM; read-out: Percent Control
T5 construct: purchased Eurofins DiscoverX KINOMEscan
T5 sequence (Q9UBF8 whole entry): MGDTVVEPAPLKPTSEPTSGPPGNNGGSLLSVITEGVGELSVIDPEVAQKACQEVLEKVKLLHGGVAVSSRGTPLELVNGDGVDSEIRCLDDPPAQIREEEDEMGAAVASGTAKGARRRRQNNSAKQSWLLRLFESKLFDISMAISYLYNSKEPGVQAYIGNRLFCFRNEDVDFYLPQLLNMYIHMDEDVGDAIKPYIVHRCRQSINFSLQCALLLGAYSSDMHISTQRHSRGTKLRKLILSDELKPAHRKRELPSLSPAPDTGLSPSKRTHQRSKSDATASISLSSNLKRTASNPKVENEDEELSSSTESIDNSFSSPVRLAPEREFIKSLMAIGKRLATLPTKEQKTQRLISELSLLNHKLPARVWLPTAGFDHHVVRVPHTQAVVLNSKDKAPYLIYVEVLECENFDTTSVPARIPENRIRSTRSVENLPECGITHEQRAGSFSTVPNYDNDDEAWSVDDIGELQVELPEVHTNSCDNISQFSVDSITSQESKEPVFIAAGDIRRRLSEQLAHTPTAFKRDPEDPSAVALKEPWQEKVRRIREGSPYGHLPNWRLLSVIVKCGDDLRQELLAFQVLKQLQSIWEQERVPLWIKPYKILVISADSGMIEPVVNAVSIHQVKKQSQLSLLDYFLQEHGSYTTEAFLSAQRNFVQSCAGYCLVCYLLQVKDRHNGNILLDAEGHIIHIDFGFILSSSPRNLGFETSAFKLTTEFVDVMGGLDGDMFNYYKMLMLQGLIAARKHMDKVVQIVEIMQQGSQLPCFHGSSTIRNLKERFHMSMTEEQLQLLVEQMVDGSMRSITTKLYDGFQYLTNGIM
Excerpt: as §1

PIM1 = molecular target: T6, PIM1 (Homo sapiens, UniProt P11309); experiment: KINOMEscan 1 μM, PIM1; type: binding; settings: 1000 nM; Entrez PIM1; read-out: Percent Control
T6 construct: purchased Eurofins DiscoverX KINOMEscan
Excerpt: as §1

FLT3(ITD,F691L) = experiment: KINOMEscan 1 μM, FLT3(ITD,F691L); type: binding, human; settings: 1000 nM; Entrez FLT3
Excerpt: as §1

RET(V804L) = molecular target: T7, RET(V804L) (Homo sapiens, UniProt P07949, V804L); experiment: KINOMEscan 1 μM, RET(V804L); type: binding; settings: 1000 nM; Entrez RET; read-out: Percent Control
T7 construct: purchased Eurofins DiscoverX KINOMEscan
T7 sequence (P07949 29-1114 V804L): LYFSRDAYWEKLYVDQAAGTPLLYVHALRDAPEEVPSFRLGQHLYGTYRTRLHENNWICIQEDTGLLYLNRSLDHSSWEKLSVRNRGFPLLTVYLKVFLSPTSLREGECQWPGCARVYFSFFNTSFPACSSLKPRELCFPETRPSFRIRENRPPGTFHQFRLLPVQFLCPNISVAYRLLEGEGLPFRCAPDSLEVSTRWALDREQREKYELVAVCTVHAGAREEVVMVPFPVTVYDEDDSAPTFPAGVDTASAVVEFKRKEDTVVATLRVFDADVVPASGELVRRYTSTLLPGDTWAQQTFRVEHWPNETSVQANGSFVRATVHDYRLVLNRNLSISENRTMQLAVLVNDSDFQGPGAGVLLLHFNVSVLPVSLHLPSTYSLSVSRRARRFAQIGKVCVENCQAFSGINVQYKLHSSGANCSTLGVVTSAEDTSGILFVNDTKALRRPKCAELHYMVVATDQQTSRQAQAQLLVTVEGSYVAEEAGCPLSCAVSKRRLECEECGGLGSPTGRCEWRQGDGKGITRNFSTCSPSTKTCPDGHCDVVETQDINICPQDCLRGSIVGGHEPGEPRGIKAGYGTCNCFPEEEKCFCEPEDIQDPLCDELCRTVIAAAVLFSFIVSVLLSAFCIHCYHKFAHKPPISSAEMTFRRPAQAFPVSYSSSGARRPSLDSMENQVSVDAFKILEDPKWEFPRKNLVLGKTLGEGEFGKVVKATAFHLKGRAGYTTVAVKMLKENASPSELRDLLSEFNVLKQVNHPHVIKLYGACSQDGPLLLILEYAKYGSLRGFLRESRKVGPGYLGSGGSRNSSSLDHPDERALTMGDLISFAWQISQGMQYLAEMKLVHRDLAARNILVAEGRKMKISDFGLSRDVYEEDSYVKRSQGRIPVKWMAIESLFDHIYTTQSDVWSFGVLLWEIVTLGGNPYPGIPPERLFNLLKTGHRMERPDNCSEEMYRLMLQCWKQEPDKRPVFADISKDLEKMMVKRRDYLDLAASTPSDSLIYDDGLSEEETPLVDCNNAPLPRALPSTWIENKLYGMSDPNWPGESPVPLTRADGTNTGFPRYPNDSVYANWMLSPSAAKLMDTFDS
Excerpt: as §1

PIP5K1A = molecular target: T8, PIP5K1A (Homo sapiens, UniProt Q99755); experiment: DiscoverX KINOMEscan binding assay at 1 μM, PIP5K1A; settings: Compound Concentration 1000 nM, read-out: Percent Control
T8 construct: purchased Eurofins DiscoverX KINOMEscan
T8 sequence (Q99755 whole entry): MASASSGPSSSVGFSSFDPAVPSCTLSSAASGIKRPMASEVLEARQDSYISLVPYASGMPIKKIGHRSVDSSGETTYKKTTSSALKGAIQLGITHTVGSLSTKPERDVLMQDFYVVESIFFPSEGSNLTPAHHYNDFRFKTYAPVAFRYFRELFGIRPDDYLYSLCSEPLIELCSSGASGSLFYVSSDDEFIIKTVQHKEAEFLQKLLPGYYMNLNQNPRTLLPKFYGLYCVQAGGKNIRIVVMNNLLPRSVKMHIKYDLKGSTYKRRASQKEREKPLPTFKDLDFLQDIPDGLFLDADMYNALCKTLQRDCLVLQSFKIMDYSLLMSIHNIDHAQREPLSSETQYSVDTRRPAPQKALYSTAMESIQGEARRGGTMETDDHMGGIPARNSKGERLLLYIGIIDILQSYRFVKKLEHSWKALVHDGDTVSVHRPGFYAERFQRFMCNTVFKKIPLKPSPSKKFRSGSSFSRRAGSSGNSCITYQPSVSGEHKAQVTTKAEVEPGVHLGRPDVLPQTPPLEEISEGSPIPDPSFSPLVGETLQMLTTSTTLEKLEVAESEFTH
Excerpt: as §1

PRKCI = molecular target: T9, PRKCI (Homo sapiens, UniProt P41743); experiment: DiscoverX KINOMEscan binding assay at 1 μM, PRKCI; settings: Compound Concentration 1000 nM, read-out: Percent Control
T9 construct: purchased Eurofins DiscoverX KINOMEscan
Excerpt: as §1

[2] = molecular target: T10, RSK2(Kin.Dom.1-N-terminal) (Homo sapiens, UniProt P51812); experiment: DiscoverX KINOMEscan binding assay at 1 μM, RSK2(Kin.Dom.1-N-terminal); settings: RSK2(Kin.Dom.1-N-terminal) (RPS6KA3); Compound Concentration 1000 nM; read-out: Percent Control
T10 construct: RSK2(Kin.Dom.1-N-terminal); purchased Eurofins DiscoverX KINOMEscan
T10 sequence (P51812 1-397 limits assumed): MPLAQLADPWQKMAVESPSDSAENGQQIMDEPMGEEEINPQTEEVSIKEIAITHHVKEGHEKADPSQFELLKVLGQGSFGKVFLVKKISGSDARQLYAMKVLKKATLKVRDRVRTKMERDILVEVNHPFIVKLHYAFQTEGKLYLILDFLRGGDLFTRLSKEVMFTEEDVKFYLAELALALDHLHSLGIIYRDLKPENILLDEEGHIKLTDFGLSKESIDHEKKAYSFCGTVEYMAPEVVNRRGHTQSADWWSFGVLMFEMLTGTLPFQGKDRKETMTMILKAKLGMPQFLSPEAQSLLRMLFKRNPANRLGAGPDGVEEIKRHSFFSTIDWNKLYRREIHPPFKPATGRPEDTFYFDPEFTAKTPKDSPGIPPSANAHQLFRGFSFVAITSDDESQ
Excerpt: as §1

EPHA2 = molecular target: T11, EPHA2 (Homo sapiens, UniProt P29317); experiment: KINOMEscan 1 μM, EPHA2; type: binding; settings: 1000 nM; Entrez EPHA2; read-out: Percent Control
T11 construct: purchased Eurofins DiscoverX KINOMEscan
Excerpt: as §1

TRKB = molecular target: T12, TRKB (Homo sapiens, UniProt Q16620); experiment: DiscoverX KINOMEscan binding assay at 1 μM, TRKB; settings: TRKB (NTRK2); Compound Concentration 1000 nM; read-out: Percent Control
T12 construct: purchased Eurofins DiscoverX KINOMEscan
Excerpt: as §1

CDKL2 = molecular target: T13, CDKL2 (Homo sapiens, UniProt Q92772); experiment: KINOMEscan 1 μM, CDKL2; type: binding; settings: 1000 nM; Entrez CDKL2; read-out: Percent Control
T13 construct: purchased Eurofins DiscoverX KINOMEscan
Excerpt: as §1

KIT-autoinhibited = molecular target: T14, KIT-autoinhibited (Homo sapiens, UniProt P10721); experiment: KINOMEscan 1 μM, KIT-autoinhibited; type: binding; settings: 1000 nM; Entrez KIT; read-out: Percent Control
T14 construct: purchased Eurofins DiscoverX KINOMEscan
Excerpt: as §1

ACVR2A = molecular target: T15, ACVR2A (Homo sapiens, UniProt P27037); experiment: KINOMEscan 1 μM, ACVR2A; type: binding; settings: 1000 nM; Entrez ACVR2A; read-out: Percent Control
T15 construct: purchased Eurofins DiscoverX KINOMEscan
T15 sequence (P27037 20-513): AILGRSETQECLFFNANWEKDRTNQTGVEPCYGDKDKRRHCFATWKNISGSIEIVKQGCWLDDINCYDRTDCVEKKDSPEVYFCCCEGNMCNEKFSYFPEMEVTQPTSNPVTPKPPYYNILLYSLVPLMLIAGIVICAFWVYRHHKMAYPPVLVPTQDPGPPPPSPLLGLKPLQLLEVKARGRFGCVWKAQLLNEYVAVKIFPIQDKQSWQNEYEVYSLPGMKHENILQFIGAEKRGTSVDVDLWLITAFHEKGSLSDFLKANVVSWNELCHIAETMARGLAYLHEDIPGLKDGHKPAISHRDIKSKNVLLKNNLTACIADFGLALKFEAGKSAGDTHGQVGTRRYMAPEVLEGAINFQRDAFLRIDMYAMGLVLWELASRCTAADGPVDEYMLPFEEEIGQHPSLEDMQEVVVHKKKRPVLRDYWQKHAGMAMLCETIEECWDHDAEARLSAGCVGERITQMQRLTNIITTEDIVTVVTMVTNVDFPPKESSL
Excerpt: as §1

CAMK1 = molecular target: T16, CAMK1 (Homo sapiens, UniProt Q14012); experiment: KINOMEscan 1 μM, CAMK1; type: binding; settings: 1000 nM; Entrez CAMK1; read-out: Percent Control
T16 construct: purchased Eurofins DiscoverX KINOMEscan
Excerpt: as §1

FLT3(K663Q) = molecular target: T17, FLT3(K663Q) (Homo sapiens, UniProt P36888, K663Q); experiment: KINOMEscan binding assay at 1 μM, FLT3(K663Q); settings: Compound Concentration 1000 nM; read-out: Percent Control
T17 construct: purchased Eurofins DiscoverX KINOMEscan
Excerpt: (§2) Supplement cells-12-00287-s001.zip/File S2. KinomeScan data for the CAMKK2 probe and negative control.xlsx, sheet "SGC-CAMKK2-1N" | column: Percent Control

FGFR3 = molecular target: T18, FGFR3 (Homo sapiens, UniProt P22607); experiment: KINOMEscan at 1 μM, FGFR3; type: binding; settings: 1000 nM, read-out: Percent Control
T18 construct: purchased Eurofins DiscoverX KINOMEscan
Excerpt: as §2

KIT(V559D,V654A) = molecular target: T19, KIT(V559D,V654A) (Homo sapiens, UniProt P10721, V559D/V654A); experiment: KINOMEscan at 1 μM, KIT(V559D,V654A); type: binding; settings: 1000 nM, read-out: Percent Control
T19 construct: purchased Eurofins DiscoverX KINOMEscan
Excerpt: as §2

GAK = molecular target: T20, GAK (Homo sapiens, UniProt O14976); experiment: KINOMEscan at 1 μM, GAK; type: binding; settings: 1000 nM, read-out: Percent Control
T20 construct: purchased Eurofins DiscoverX KINOMEscan
Excerpt: as §2

RET = molecular target: T21, RET (Homo sapiens, UniProt P07949); experiment: KINOMEscan binding assay at 1 μM, RET; settings: Compound Concentration 1000 nM; read-out: Percent Control
T21 construct: purchased Eurofins DiscoverX KINOMEscan
T21 sequence (P07949 29-1114): as the sequence (P07949 29-1114 V804L) above, with L776V counted along it
Excerpt: as §2

ASK2 = molecular target: T22, ASK2 (Homo sapiens, UniProt O95382); experiment: KINOMEscan at 1 μM, ASK2; type: binding; settings: 1000 nM, read-out: Percent Control
T22 construct: purchased Eurofins DiscoverX KINOMEscan
Excerpt: as §2

TRKA = molecular target: T23, TRKA (Homo sapiens, UniProt P04629); experiment: KINOMEscan at 1 μM, TRKA; type: binding; settings: 1000 nM, read-out: Percent Control
T23 construct: purchased Eurofins DiscoverX KINOMEscan
Excerpt: as §2

EPHA4 = molecular target: T24, EPHA4 (Homo sapiens, UniProt P54764); experiment: KINOMEscan at 1 μM, EPHA4; type: binding; settings: 1000 nM, read-out: Percent Control
T24 construct: purchased Eurofins DiscoverX KINOMEscan
T24 sequence (P54764 20-986): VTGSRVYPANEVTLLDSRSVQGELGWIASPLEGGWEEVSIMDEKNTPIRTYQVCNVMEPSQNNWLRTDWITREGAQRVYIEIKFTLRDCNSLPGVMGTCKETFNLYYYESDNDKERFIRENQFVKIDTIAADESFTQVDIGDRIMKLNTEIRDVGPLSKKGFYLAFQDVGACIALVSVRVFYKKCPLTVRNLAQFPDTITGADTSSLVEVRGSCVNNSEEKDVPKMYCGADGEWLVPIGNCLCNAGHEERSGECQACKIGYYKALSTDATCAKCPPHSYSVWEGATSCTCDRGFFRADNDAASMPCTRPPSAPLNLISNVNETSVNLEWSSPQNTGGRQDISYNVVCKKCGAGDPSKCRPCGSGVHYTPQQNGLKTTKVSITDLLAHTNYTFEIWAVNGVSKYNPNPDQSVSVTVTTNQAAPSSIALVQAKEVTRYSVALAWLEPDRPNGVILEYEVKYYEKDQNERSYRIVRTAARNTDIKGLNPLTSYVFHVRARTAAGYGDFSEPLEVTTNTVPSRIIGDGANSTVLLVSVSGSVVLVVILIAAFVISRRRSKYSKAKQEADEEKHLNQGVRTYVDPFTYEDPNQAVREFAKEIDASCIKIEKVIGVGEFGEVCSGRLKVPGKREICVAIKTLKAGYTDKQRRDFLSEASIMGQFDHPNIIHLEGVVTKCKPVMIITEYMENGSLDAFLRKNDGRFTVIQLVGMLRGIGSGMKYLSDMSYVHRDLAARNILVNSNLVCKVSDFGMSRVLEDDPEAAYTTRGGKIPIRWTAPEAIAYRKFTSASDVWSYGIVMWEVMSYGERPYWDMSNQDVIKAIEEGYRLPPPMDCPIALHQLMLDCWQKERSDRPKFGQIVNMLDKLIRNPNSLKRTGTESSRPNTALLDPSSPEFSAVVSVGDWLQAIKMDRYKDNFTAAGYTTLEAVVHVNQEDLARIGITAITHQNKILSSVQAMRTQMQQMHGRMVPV
Excerpt: as §2

MELK = molecular target: T25, MELK (Homo sapiens, UniProt Q14680); experiment: KINOMEscan at 1 μM, MELK; type: binding; settings: 1000 nM, read-out: Percent Control
T25 construct: purchased Eurofins DiscoverX KINOMEscan
Excerpt: as §2

MEK1 = molecular target: T26, MEK1 (Homo sapiens, UniProt Q02750); experiment: KINOMEscan at 1 μM, MEK1; type: binding; settings: 1000 nM, read-out: Percent Control
T26 construct: purchased Eurofins DiscoverX KINOMEscan
Excerpt: as §2

MET = molecular target: T27, MET (Homo sapiens, UniProt P08581); experiment: KINOMEscan at 1 μM, MET; type: binding; settings: 1000 nM, read-out: Percent Control
T27 construct: purchased Eurofins DiscoverX KINOMEscan
Excerpt: as §2

OSR1 = molecular target: T28, OSR1 (Homo sapiens, UniProt O95747); experiment: KINOMEscan at 1 μM, OSR1; type: binding; settings: 1000 nM, read-out: Percent Control
T28 construct: purchased Eurofins DiscoverX KINOMEscan
Excerpt: as §2

CLK4 = molecular target: T29, CLK4 (Homo sapiens, UniProt Q9HAZ1); experiment: KINOMEscan at 1 μM, CLK4; type: binding; settings: 1000 nM, read-out: Percent Control
T29 construct: purchased Eurofins DiscoverX KINOMEscan
T29 sequence (Q9HAZ1 whole entry): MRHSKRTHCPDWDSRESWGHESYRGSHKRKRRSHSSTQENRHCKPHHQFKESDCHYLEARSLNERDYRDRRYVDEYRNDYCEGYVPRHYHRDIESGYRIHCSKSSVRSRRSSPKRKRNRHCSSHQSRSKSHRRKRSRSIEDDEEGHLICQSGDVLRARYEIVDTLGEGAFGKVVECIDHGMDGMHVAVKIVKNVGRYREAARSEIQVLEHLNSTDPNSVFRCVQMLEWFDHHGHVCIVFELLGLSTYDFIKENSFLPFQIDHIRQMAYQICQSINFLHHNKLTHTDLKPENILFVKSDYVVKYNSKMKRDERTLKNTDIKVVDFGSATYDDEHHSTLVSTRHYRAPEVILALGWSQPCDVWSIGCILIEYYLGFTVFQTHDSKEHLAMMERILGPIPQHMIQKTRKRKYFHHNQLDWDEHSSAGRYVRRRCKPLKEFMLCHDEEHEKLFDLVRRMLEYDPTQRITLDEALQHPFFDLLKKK
Excerpt: as §2

TSSK1B = molecular target: T30, TSSK1B (Homo sapiens, UniProt Q9BXA7); experiment: KINOMEscan at 1 μM, TSSK1B; type: binding; settings: 1000 nM, read-out: Percent Control
T30 construct: purchased Eurofins DiscoverX KINOMEscan
Excerpt: as §2

Cc1cccc(-c2cnc3occ(-c4ccc(C(=O)O)c(C5CCCC5)c4)c3c2)c1 [SGC-CAMKK2-1 (YL-36)]
remaining binding at 1 µM [1]: 100% | remaining binding at 1 µM (ULK3): 100% | Percent Control (EGFR(L747-T751del,Sins)): 85% | remaining binding at 1 µM (DMPK2): 97% | remaining binding at 1 µM (GRK7): 94% | remaining binding at 1 µM (PIK4CB): 100% | remaining binding at 1 µM (PIM1): 76% | Percent Control (FLT3(ITD,F691L)): 100% | remaining binding at 1 µM (RET(V804L)): 94% | remaining binding at 1 µM (PIP5K1A): 100% | remaining binding at 1 µM (PRKCI): 100% | remaining binding at 1 µM [2]: 100% | remaining binding at 1 µM (EPHA2): 100% | remaining binding at 1 µM (TRKB): 100% | remaining binding at 1 µM (CDKL2): 96% | remaining binding at 1 µM (KIT-autoinhibited): 100% | remaining binding at 1 µM (ACVR2A): 92% | remaining binding at 1 µM (CAMK1): 89%

O=C(O)c1ccc(-c2coc3ncc(-c4ccccc4)cc23)cc1Cl [SGC-CAMKK2-1N (UNC-YL-83)]
remaining binding at 1 µM (FLT3(K663Q)): 100% | remaining binding at 1 µM (FGFR3): 76% | remaining binding at 1 µM (KIT(V559D,V654A)): 92% | remaining binding at 1 µM (GAK): 88% | remaining binding at 1 µM (RET): 100% | remaining binding at 1 µM (ASK2): 56% | remaining binding at 1 µM (TRKA): 38% | remaining binding at 1 µM (EPHA4): 86% | remaining binding at 1 µM (MELK): 88% | remaining binding at 1 µM (MEK1): 93% | remaining binding at 1 µM (MET): 91% | remaining binding at 1 µM (OSR1): 64% | remaining binding at 1 µM (CLK4): 93% | remaining binding at 1 µM (TSSK1B): 83%
